Results reported in US12729211B2, “Gold(III) compounds and cancer cell-selective modulation of mitochondrial respiration and metabolism” (University of Kentucky Research Foundation, priority 2020, dated 2026).

How the values were obtained:
[1] = tested on: MDA-MB-468; test: MMP by JC-1 FACS, MDA-MB-468; type: cell-based
From the text: The MMP depolarizing effect on the panel of TBNCs and healthy models was examined with the use of flow assisted cell sorting (FACS) (FIG. 19A-C). JC-1 was used, a cationic, fluorometric dye that is dependent on the negative charge of the MMP. It is represented as J-aggregates (red fluorescence) when it accumulates into the mitochondria and J-monomers (green fluorescence) when it is located outside the mitochondrial membrane due to loss of the electrochemical gradient.
Next, the effect of MMP was examined when pretreated with MitoTEMPO (1 μM, 2 hours) (FIG. 34).

[2] = tested on: MDA-MB-468; test: Mitochondrial ROS (mtROS) by MitoSOX FACS; type: cell-based; settings: MitoTEMPO 1 μM 2 hours, then 2a 10 μM 2 hours
From the text: Second, to solidify the specificity of ROS, the use of MitoSOX was employed, which is a mitochondrial targeting dye that specifically reacts with superoxide.
First, the effect of pre-treatment on mtROS production was examined using flow cytometry. Since MitoTEMPO is a specific scavenger for superoxide, the potential to alleviate mitochondrial oxidative damage was investigated by scavenging mtROS once produced. […] In this experiment, Rotenone, a mitochondrial complex I inhibitor, was used as a positive control.

Compound	loss of MMP, MitoTEMPO pretreatment [1] [%]	loss of MMP, no pretreatment [1] [%]	decrease in mtROS versus the non-pretreated group [2] [fold]
Carbonyl cyanide m-chlorophenyl hydrazine [CCCP]	84	95	
CC1(C)CC(NC(=O)C[P+](c2ccccc2)(c2ccccc2)c2ccccc2)CC(C)(C)N1[O] [MitoTEMPO]			1.8
